Source: publication PMC8230565, “Bisavenathramide Analogues as Nrf2 Inductors and Neuroprotectors in In Vitro Models of Oxidative Stress and Hyperphosphorylation” (Antioxidants, 2021)
Entries after “also recorded” stand apart in the source; their conditions may differ.

Tests used:
Format in all cases: cell-based
[1] = system: AT8 (Ser202, Thr205 phospho-Tau); assay: Phospho-tau (AT8) immunofluorescence in SH-SY5Y cells treated with okadaic acid; conditions: 10 µM, OA 20 nM, 8 h
Procedure: (§1) AREc32 or SH-SY5Y cells were seeded in 24 multiwell plates (40,000 or 100,000 cells per well, respectively) on poly-D-Lysine coated crystal slides. AREc32 cells were incubated for 1 h with the compounds under assay, and were then fixed by treatment with a 4% solution of paraformaldehyde in PBS for 15 min, followed by three washings with PBS in 5 min intervals. SH-SY5Y cells were treated with compounds during 24 h, and then co-incubated with medium (basal), okadaic acid (OA, 20 nM), or OA plus compound 3i (10 μM). Thereafter, cells were permeabilized by treatment with 0.5% Triton X-100 for 5 min, followed by three washings with PBS, and were incubated overnight with primary antibody anti-Nrf2 (ARE, 1:50, A-10, sc-365949, Santa Cruz Biotechnology, Dallas, TX, USA), anti-pTau AT8 (1:400, MN1020, Thermofisher, Madrid, Spain), and anti-HO-1 (1:400, Ab13243, Abcam, Madrid, Spain). After three washes with PBS, the cells were incubated with secondary antibodies (1:800, 1 h). In order to visualize the nuclei, the cells were counterstained during the second wash with 5 μg·mL^−1 of Hoechst 33342 (Invitrogen, Madrid, Spain). […]
(§2) Finally, we evaluated the capacity of compound 3i to reduce tau hyperphosphorylation in the SH-SY5Y cellular line induced by okadaic acid (OA). […]

HO-1 = HO-1 immunofluorescence in SH-SY5Y cells treated with okadaic acid; conditions: 10 µM, OA 20 nM, 8 h
Procedure: as §1, §2

SH-SY5Y cells = assay: Neuroprotection against rotenone/oligomycin A in SH-SY5Y cells (MTT); conditions: increasing concentrations; R/O 30/10 µM
NQO1 = assay: Western blot of Nrf2-dependent protein expression in AREc32 cells: NQO1; conditions: 30 μM, 24 h
Procedure: (§3) AREc32 cells were collected from plates after 24 h of treatment with the selected compound at 30 µM. Then, they were lysed in ice-cold lysis buffer (1% Nonidet P-40, 10% glycerol, 137 mM NaCl, 20 mM Tris HCl pH 7.5, 1 μg/mL leupeptin, 1 mM phenylmethylsulfonyl fluoride, 20 mM NaF, 1 mM sodium pyrophosphate, and 1 mM Na3VO4). After this treatment, proteins (30 μg) were resolved by gel electrophoresis on sodium dodecyl sulfate–polyacrylamide (12%) and transferred to Immobilon-P membranes (MilliporeSigma, Burlington, MA, USA). The membranes were incubated with anti-GCLc (1:1000, Ab41463 (Abcam, Cambridge, MA, USA), anti−HMOX1 (1:1000, ab68477, Abcam), anti-NQO1 (1:1000, 11451-1-AP, Proteintech, Manchester, UK), or anti-β-Actin (1:100,000, A3854, Merck, Madrid, Spain). Peroxidase-conjugated secondary antibodies (1:10,000 and anti-rabbit: SC-2357, Santa Cruz Biotechnology, Dallas, TX, USA) were employed to detect the proteins by enhanced chemoluminescence. Band intensities corresponding to immunoblot detection of protein samples were quantitated with Fiji software.
(§4) Figure 4 Compound 3g effectively induces Nrf2 translocation and overexpression of Nrf2-ARE dependent genes in AREc32 cells. […] (B) Nrf2 nuclear localization analysis, measured as integrated intensity localized at the nucleus. HMOX1 (C) and NQO1 (D) expression in AREc32, measured by Western blot analysis. […]

Nrf2 = Nrf2 nuclear translocation, immunocytochemistry in AREc32 cells; conditions: 30 μM, 1 h
Procedure: AREc32 or SH-SY5Y cells were seeded in 24 multiwell plates (40,000 or 100,000 cells per well, respectively) on poly-D-Lysine coated crystal slides. AREc32 cells were incubated for 1 h with the compounds under assay, and were then fixed by treatment with a 4% solution of paraformaldehyde in PBS for 15 min, followed by three washings with PBS in 5 min intervals. SH-SY5Y cells were treated with compounds during 24 h, and then co-incubated with medium (basal), okadaic acid (OA, 20 nM), or OA plus compound 3i (10 μM). […]
Figure 4 Compound 3g effectively induces Nrf2 translocation and overexpression of Nrf2-ARE dependent genes in AREc32 cells. […] (B) Nrf2 nuclear localization analysis, measured as integrated intensity localized at the nucleus. HMOX1 (C) and NQO1 (D) expression in AREc32, measured by Western blot analysis. Cells were treated with compound 3g (30 µM), sulforaphane (10 µM), or culture medium (basal) for 24 h and protein expression was then assessed. Graphs are expressed as densitometric quantification using β-actin for normalization (bottom). […] Data are expressed as mean ± S.E.M. of six independent experiments. […]

HMOX1 = assay: Western blot of Nrf2-dependent protein expression in AREc32 cells: HMOX1; conditions: 30 μM, 24 h
Procedure: as §3, §4

Compound	phospho-tau levels [1]	increase of HO-1 levels compared to basal levels (HO-1)	neuroprotective effect against rotenone/oligomycin A by concentration (SH-SY5Y cells)	NQO1 protein levels (NQO1)	Nrf2 distribution in cells (Nrf2)	HMOX1 protein levels (HMOX1)
COC(=O)C1=C(C)N(CCc2ccccc2)C(=O)/C1=C\c1ccc(O)c(O)c1 [Compound 3i, Methyl (Z)-4-(3,4-Dihydroxybenzylidene)-2-methyl-5-oxo-1-phenethyl-4,5-dihydro-1H-pyrrole-3-carboxylate]	significantly reduced phopho-tau levels to basal levels	46%	statistically significant neuroprotective effect at 0.1 and 1 µM; also recorded: this activity was lost at 10 µM			
COC(=O)C1=C(C)N(CCc2ccccc2)C(=O)/C1=C\c1cc(OC)c(OC)c(OC)c1 [Compound 3g, Methyl (Z)-2-Methyl-5-oxo-1-phenethyl-4-(3,4,5-trimethoxybenzylidene)-4,5-dihydro-1H-pyrrole-3-carboxylate]				significantly increased	predominately nuclear distribution of Nrf2	significantly increased
